# Measurements reported in PMC10313671, “Accelerating the prediction and discovery of peptide hydrogels with human-in-the-loop” (Nature Communications, 2023).
# Where a SMILES comes first, the peptide text is derived from it.
# Test: Peptide hydrogel formation, vial-inverting method
# Assay type: physicochemical
# Design: key to EXP / GELATION: 0: no hydrogel; 1: hydrogel
# Settings: 60 mM peptide in ultrapure water; pH 6.5-8.5 (1 N NaOH), ultrasonication, standing 48 h; vial-inverting method; no gel at 30 mM
# Outline: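 Tetrapeptides dissolved in ultrapure water at 30 mM, pH brought to 6.5–8.5 with 1 N NaOH stepwise with brief ultrasonication, then left 48 h. Gel defined as self-supporting and non-flowing on vial inversion; non-gelling peptides retested at 60, 90 and 120 mM.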
row,Compound,State
1,CC[C@H](C)[C@H](NC(=O)[C@H](C)NC(=O)[C@@H](NC(=O)[C@@H](N)CC(C)C)C(C)C)C(=O)O [LVAI] (H-LVAI-OH),gel

# Same assay, conditions: 90 mM peptide in ultrapure water; pH 6.5-8.5 (1 N NaOH), ultrasonication, standing 48 h; vial-inverting method; no gel at lower concentrations
row,Compound,State
1,CC[C@H](C)[C@H](NC(=O)[C@@H](N)CC(C)C)C(=O)N[C@@H](CCC(=O)O)C(=O)N[C@@H](CCSC)C(=O)O [LIEM] (H-LIEM-OH),gel

# Same assay, conditions: 120 mM peptide (highest tested) in ultrapure water; pH 6.5-8.5 (1 N NaOH), ultrasonication, standing 48 h; vial-inverting method; precipitate, sol, suspension = no gel
row,Compound,State
1,CC(C)C[C@H](NC(=O)[C@H](C)NC(=O)[C@@H](N)CC(=O)O)C(=O)N[C@H](C(=O)O)C(C)C [DALV] (H-DALV-OH),suspension
2,CC(C)[C@H](NC(=O)[C@H](C)NC(=O)[C@@H](N)[C@@H](C)O)C(=O)N[C@@H](Cc1ccccc1)C(=O)O [TAVF] (H-TAVF-OH),gel
3,CSCC[C@H](NC(=O)[C@@H](N)CCC(N)=O)C(=O)N[C@H](C(=O)N[C@H](C(=O)O)C(C)C)C(C)C [QMVV] (H-QMVV-OH),gel
4,CC(C)C[C@H](NC(=O)CN)C(=O)N[C@@H](CC(C)C)C(=O)N[C@@H](Cc1ccc(O)cc1)C(=O)O [GLLY] (H-GLLY-OH),suspension
5,O=C(O)[C@H](CS)NC(=O)[C@H](Cc1c[nH]c2ccccc12)NC(=O)[C@H](Cc1c[nH]c2ccccc12)NC(=O)[C@@H]1CCCN1 [PWWC] (H-PWWC-OH),suspension
6,CC(C)C[C@H](N)C(=O)N[C@H](C(=O)N1CCC[C@H]1C(=O)N[C@@H](Cc1ccccc1)C(=O)O)C(C)C [LVPF] (H-LVPF-OH),sol
7,NCCCC[C@H](NC(=O)[C@H](CCCCN)NC(=O)[C@H](CCCCN)NC(=O)[C@@H](N)CCCCN)C(=O)O [KKKK] (H-KKKK-OH),sol
8,CC[C@H](C)[C@H](NC(=O)[C@H](Cc1c[nH]c2ccccc12)NC(=O)[C@@H](N)C(C)C)C(=O)N[C@H](C(=O)O)[C@@H](C)O [VWIT] (H-VWIT-OH),precipitate
9,N[C@@H](CO)C(=O)N[C@@H](CO)C(=O)N[C@@H](CO)C(=O)N[C@@H](CO)C(=O)O [SSSS] (H-SSSS-OH),suspension
10,CSCC[C@H](NC(=O)[C@@H](N)CCSC)C(=O)N[C@@H](Cc1ccc(O)cc1)C(=O)N[C@@H](Cc1ccc(O)cc1)C(=O)O [MMYY] (H-MMYY-OH),suspension
11,O=C(CNC(=O)[C@@H]1CCCN1)N[C@@H](Cc1c[nH]c2ccccc12)C(=O)N[C@@H](Cc1c[nH]c2ccccc12)C(=O)O [PGWW] (H-PGWW-OH),sol

# Same assay, conditions: concentration at which the state was recorded: lowest of 30, 60, 90, 120 mM that gave a gel; 120 mM for non-gelating peptides
row,Compound,Concentration [µM]
1,CC(C)C[C@H](NC(=O)[C@H](C)NC(=O)[C@@H](N)CC(=O)O)C(=O)N[C@H](C(=O)O)C(C)C [DALV] (H-DALV-OH),120000
2,CC(C)[C@H](NC(=O)[C@H](C)NC(=O)[C@@H](N)[C@@H](C)O)C(=O)N[C@@H](Cc1ccccc1)C(=O)O [TAVF] (H-TAVF-OH),120000
3,CSCC[C@H](NC(=O)[C@@H](N)CCC(N)=O)C(=O)N[C@H](C(=O)N[C@H](C(=O)O)C(C)C)C(C)C [QMVV] (H-QMVV-OH),120000
4,CC(C)C[C@H](NC(=O)CN)C(=O)N[C@@H](CC(C)C)C(=O)N[C@@H](Cc1ccc(O)cc1)C(=O)O [GLLY] (H-GLLY-OH),120000
5,O=C(O)[C@H](CS)NC(=O)[C@H](Cc1c[nH]c2ccccc12)NC(=O)[C@H](Cc1c[nH]c2ccccc12)NC(=O)[C@@H]1CCCN1 [PWWC] (H-PWWC-OH),120000
6,CC(C)C[C@H](N)C(=O)N[C@H](C(=O)N1CCC[C@H]1C(=O)N[C@@H](Cc1ccccc1)C(=O)O)C(C)C [LVPF] (H-LVPF-OH),120000
7,NCCCC[C@H](NC(=O)[C@H](CCCCN)NC(=O)[C@H](CCCCN)NC(=O)[C@@H](N)CCCCN)C(=O)O [KKKK] (H-KKKK-OH),120000
8,CC[C@H](C)[C@H](NC(=O)[C@H](Cc1c[nH]c2ccccc12)NC(=O)[C@@H](N)C(C)C)C(=O)N[C@H](C(=O)O)[C@@H](C)O [VWIT] (H-VWIT-OH),120000
9,N[C@@H](CO)C(=O)N[C@@H](CO)C(=O)N[C@@H](CO)C(=O)N[C@@H](CO)C(=O)O [SSSS] (H-SSSS-OH),120000
10,CC[C@H](C)[C@H](NC(=O)[C@@H](N)CC(C)C)C(=O)N[C@@H](CCC(=O)O)C(=O)N[C@@H](CCSC)C(=O)O [LIEM] (H-LIEM-OH),90000
11,CSCC[C@H](NC(=O)[C@@H](N)CCSC)C(=O)N[C@@H](Cc1ccc(O)cc1)C(=O)N[C@@H](Cc1ccc(O)cc1)C(=O)O [MMYY] (H-MMYY-OH),120000
12,O=C(CNC(=O)[C@@H]1CCCN1)N[C@@H](Cc1c[nH]c2ccccc12)C(=O)N[C@@H](Cc1c[nH]c2ccccc12)C(=O)O [PGWW] (H-PGWW-OH),120000
13,CC[C@H](C)[C@H](NC(=O)[C@H](C)NC(=O)[C@@H](NC(=O)[C@@H](N)CC(C)C)C(C)C)C(=O)O [LVAI] (H-LVAI-OH),60000

# Same assay, conditions: experimental gelation result of the synthesized peptide
row,Compound,EXP
1,CC(C)C[C@H](NC(=O)CN)C(=O)N[C@@H](CC(C)C)C(=O)N[C@@H](Cc1ccc(O)cc1)C(=O)O [GLLY] (H-GLLY-OH),0

# Same assay, conditions: peptide concentration 60 mM; vial-inverting method; 1 = hydrogel, 0 = no hydrogel
row,Compound,GELATION
1,CC[C@H](C)[C@H](NC(=O)[C@H](C)NC(=O)[C@@H](NC(=O)[C@@H](N)CC(C)C)C(C)C)C(=O)O [LVAI] (H-LVAI-OH),1

# Same assay, conditions: peptide concentration 90 mM; vial-inverting method; 1 = hydrogel, 0 = no hydrogel
row,Compound,GELATION
1,CC[C@H](C)[C@H](NC(=O)[C@@H](N)CC(C)C)C(=O)N[C@@H](CCC(=O)O)C(=O)N[C@@H](CCSC)C(=O)O [LIEM] (H-LIEM-OH),1

# Same assay, conditions: peptide concentration 120 mM; vial-inverting method; 1 = hydrogel, 0 = no hydrogel
row,Compound,GELATION
1,CC(C)C[C@H](NC(=O)[C@H](C)NC(=O)[C@@H](N)CC(=O)O)C(=O)N[C@H](C(=O)O)C(C)C [DALV] (H-DALV-OH),0
2,CC(C)[C@H](NC(=O)[C@H](C)NC(=O)[C@@H](N)[C@@H](C)O)C(=O)N[C@@H](Cc1ccccc1)C(=O)O [TAVF] (H-TAVF-OH),1
3,CSCC[C@H](NC(=O)[C@@H](N)CCC(N)=O)C(=O)N[C@H](C(=O)N[C@H](C(=O)O)C(C)C)C(C)C [QMVV] (H-QMVV-OH),1
4,CC(C)C[C@H](NC(=O)CN)C(=O)N[C@@H](CC(C)C)C(=O)N[C@@H](Cc1ccc(O)cc1)C(=O)O [GLLY] (H-GLLY-OH),0
5,O=C(O)[C@H](CS)NC(=O)[C@H](Cc1c[nH]c2ccccc12)NC(=O)[C@H](Cc1c[nH]c2ccccc12)NC(=O)[C@@H]1CCCN1 [PWWC] (H-PWWC-OH),0
6,CC(C)C[C@H](N)C(=O)N[C@H](C(=O)N1CCC[C@H]1C(=O)N[C@@H](Cc1ccccc1)C(=O)O)C(C)C [LVPF] (H-LVPF-OH),0
7,NCCCC[C@H](NC(=O)[C@H](CCCCN)NC(=O)[C@H](CCCCN)NC(=O)[C@@H](N)CCCCN)C(=O)O [KKKK] (H-KKKK-OH),0
8,CC[C@H](C)[C@H](NC(=O)[C@H](Cc1c[nH]c2ccccc12)NC(=O)[C@@H](N)C(C)C)C(=O)N[C@H](C(=O)O)[C@@H](C)O [VWIT] (H-VWIT-OH),0
9,N[C@@H](CO)C(=O)N[C@@H](CO)C(=O)N[C@@H](CO)C(=O)N[C@@H](CO)C(=O)O [SSSS] (H-SSSS-OH),0
10,CSCC[C@H](NC(=O)[C@@H](N)CCSC)C(=O)N[C@@H](Cc1ccc(O)cc1)C(=O)N[C@@H](Cc1ccc(O)cc1)C(=O)O [MMYY] (H-MMYY-OH),0
11,O=C(CNC(=O)[C@@H]1CCCN1)N[C@@H](Cc1c[nH]c2ccccc12)C(=O)N[C@@H](Cc1c[nH]c2ccccc12)C(=O)O [PGWW] (H-PGWW-OH),0

# Test: Transmission electron microscope (negative staining) of peptide assemblies
# Settings: TEM, negative staining with uranyl acetate, 120 kV; line of the table gives 60 mM
# Procedure: We used the negative staining technique to observe the morphologies formed by peptides. A micropipette was used to load 10 μL of sample solution to a carbon-coated copper grid, and we used a piece of filter paper to remove the excess solution. After rinsing the grid with the deionized water, we used uranyl acetate to stain the sample for 1 minute and then rinsed the grid with deionized water again.
row,Compound,Morphology
1,CC[C@H](C)[C@H](NC(=O)[C@H](C)NC(=O)[C@@H](NC(=O)[C@@H](N)CC(C)C)C(C)C)C(=O)O [LVAI] (H-LVAI-OH),fibre

# Same assay, conditions: TEM, negative staining with uranyl acetate, 120 kV; line of the table gives 90 mM
row,Compound,Morphology
1,CC[C@H](C)[C@H](NC(=O)[C@@H](N)CC(C)C)C(=O)N[C@@H](CCC(=O)O)C(=O)N[C@@H](CCSC)C(=O)O [LIEM] (H-LIEM-OH),hybrid(sheet+fibre)

# Same assay, conditions: TEM, negative staining with uranyl acetate, 120 kV; line of the table gives 120 mM
row,Compound,Morphology
1,CC(C)C[C@H](NC(=O)[C@H](C)NC(=O)[C@@H](N)CC(=O)O)C(=O)N[C@H](C(=O)O)C(C)C [DALV] (H-DALV-OH),aggregates
2,CC(C)[C@H](NC(=O)[C@H](C)NC(=O)[C@@H](N)[C@@H](C)O)C(=O)N[C@@H](Cc1ccccc1)C(=O)O [TAVF] (H-TAVF-OH),sheet
3,CSCC[C@H](NC(=O)[C@@H](N)CCC(N)=O)C(=O)N[C@H](C(=O)N[C@H](C(=O)O)C(C)C)C(C)C [QMVV] (H-QMVV-OH),aggregates
4,CC(C)C[C@H](NC(=O)CN)C(=O)N[C@@H](CC(C)C)C(=O)N[C@@H](Cc1ccc(O)cc1)C(=O)O [GLLY] (H-GLLY-OH),sheet
5,O=C(O)[C@H](CS)NC(=O)[C@H](Cc1c[nH]c2ccccc12)NC(=O)[C@H](Cc1c[nH]c2ccccc12)NC(=O)[C@@H]1CCCN1 [PWWC] (H-PWWC-OH),aggregates
6,CC(C)C[C@H](N)C(=O)N[C@H](C(=O)N1CCC[C@H]1C(=O)N[C@@H](Cc1ccccc1)C(=O)O)C(C)C [LVPF] (H-LVPF-OH),aggregates
7,NCCCC[C@H](NC(=O)[C@H](CCCCN)NC(=O)[C@H](CCCCN)NC(=O)[C@@H](N)CCCCN)C(=O)O [KKKK] (H-KKKK-OH),blank
8,CC[C@H](C)[C@H](NC(=O)[C@H](Cc1c[nH]c2ccccc12)NC(=O)[C@@H](N)C(C)C)C(=O)N[C@H](C(=O)O)[C@@H](C)O [VWIT] (H-VWIT-OH),aggregates
9,N[C@@H](CO)C(=O)N[C@@H](CO)C(=O)N[C@@H](CO)C(=O)N[C@@H](CO)C(=O)O [SSSS] (H-SSSS-OH),blank
10,CSCC[C@H](NC(=O)[C@@H](N)CCSC)C(=O)N[C@@H](Cc1ccc(O)cc1)C(=O)N[C@@H](Cc1ccc(O)cc1)C(=O)O [MMYY] (H-MMYY-OH),particle
11,O=C(CNC(=O)[C@@H]1CCCN1)N[C@@H](Cc1c[nH]c2ccccc12)C(=O)N[C@@H](Cc1c[nH]c2ccccc12)C(=O)O [PGWW] (H-PGWW-OH),aggregates

# Same assay, conditions: aqueous solution or hydrogel; negative staining
row,Compound,morphology by TEM (in words)
1,O=C(CNC(=O)[C@@H]1CCCN1)N[C@@H](Cc1c[nH]c2ccccc12)C(=O)N[C@@H](Cc1c[nH]c2ccccc12)C(=O)O [PGWW] (H-PGWW-OH),aggregates with different sizes
